Assay results taken from US7635423B2, “Redox potential mediated, heterogeneous, carbon nanotube biosensing” (E. I. du Pont de Nemours and Company, priority 2004, dated 2009).
Several values for one entry are separate records, joined by “and”; a condition that tells them apart may be missing. Equal values may be shown once. Where a name gives a salt, the structure may show the parent alone. Read-outs that look alike come from different tables or passages of the source.

Tests used:
[1] = tested on: Trametes versicolor laccase; assay: Laccase inhibitor kinetics: rate of ABTS^−2 oxidation at varied inhibitor and substrate concentrations; assay type: biochemical
Method: High potential quinones/quinols were screened to identify those with characteristics that would be suitable for use as an inhibitor of laccase, to be used in an activity switch.
Compounds were evaluated by varying the concentrations of inhibitor and substrate (ABTS^−2) and measuring under each condition the rate of ABTS^−2 oxidation. […] Tetrachloro-o-quinol and tetrafluoro-o-quinol, shown in Diagram I, had Kds, of 7-9 μM and 2.5 μM, respectively, as determined from the data in FIG. 20.
[…]

[2] = tested on: Trametes versicolor laccase; assay: Laccase assay: ABTS^−2 oxidation followed at 436 nm, with and without NaF; assay type: biochemical; conditions: 1 mM NaF; 5 mM ABTS^−2; 50 mM Glycine pH 3.0
Method: A stock solution of Trametes versicolor laccase (4.8 mg/ml) was diluted 200,000-fold into 50 mM Glycine, pH 3.0. At time zero, ABTS^−2 (2,2′-azino-bis(3-ethylbenzthiazoline-6-sulfonate) diammonium salt was added at a concentration of 5 mM and the oxidation of ABTS^−2 was followed by monitoring the absorbance change at 436 nm. Shown in FIG. 12 is the result of the laccase assay in the presence and absence of 1 mM NaF. The latter inhibits the laccase activity by 95%.

[3] = tested on: laccase (Type I copper center); assay: Laccase 600 nm absorbance peak on inhibitor binding; parameters: species or system Trametes versicolor
From the text: This conclusion was strengthened by the observation that the binding of tetrachloro-o-quinol to laccase caused a decrease in the amplitude of the laccase 600 nm absorbance peak, dominated by a charge-transfer band involving the Type I copper center and its cysteinyl ligand.

[4] = tested on: surface-attached oligo 29 (complementary) vs oligo 28 (non-complementary); assay: Detection of DNA hybridization by CNT device (current vs time at Vg=−0.4 V); conditions: 30 μM ABTS^−2, 50 mM glycine pH 3, adduct 50 nM (in DNA)
Method: Detection of DNA hybridization in a CNT device was assayed as diagramed in FIG. 17. […] In the diagram, two electrodes are indicated, one source electrode (10) and one drain electrode (20), where the electrodes are connected by an electrically conducting path comprising at least one semiconducting carbon nanotube (30). A third electrode (40) generates an electric field to gate the conductance of the CNT. Nucleic acid molecules, functioning as capture moieties (220) are attached to a surface (60) through a silyl butyraldehyde attachment group (230). An oligonucleotide (260) that hybridizes to the capture moiety nucleic acid is attached to the enzyme laccase (270). Laccase oxidizes ABTS^−2 (2,2′ azino-di-(3-ethylbenzthiazoline-sulfonate) at the expense of O2, transferring 4 electrons from 4ABTS^−2 to O2, producing 4ABTS^−1 and H2O. Thus the redox potential of the redox effector (ABTS^−2/ABTS^−1) in solution becomes more positive. This change in effector redox potential oxidizes the CNTs, increasing their p-type conductance. […]
Electron transport through the CNT was first recorded in the 50 mM glycine pH=3 buffer and immediately after flowing 30 μM ABTS^−2 in the same buffer into the flow cell. […]

[5] = tested on: surface-bound oligonucleotide 51; assay: Fluorescence signals following hybridization to surface bound oligo; assay type: binding; conditions: camera exposure 30 s
Method: To increase the specificity of hybridization, the chips were incubated with Sigma #6429 1× Blocking buffer for 1 h. Excess blocking solution was removed by rinsing with 50 mM Na Acetate pH 5.0 plus 100 mM Na2SO4. Surface-bound oligonucleotide 51 was hybridized separately to: • 1) Oligonucleotide 52 (SEQ ID NO:4), acting as a target sequence, hybridized to oligonucleotide 54 (SEQ ID NO:5). Oligonucleotide 54 has 18 nucleotides complementary to the 3′ end of the target oligonucleotide 52 and a fluorescent tag, Alexa Fluor 546, at its 5′ end. Oligonucleotide 52 has at its 5′ end 18 nucleotides complementary to oligonucleotide 51. • 2) Oligonucleotide 52 (SEQ ID NO:4), acting as a target sequence, hybridized to oligonucleotide 50 (SEQ ID NO:5). Oligonucleotide 50 has the same nucleotide sequence as oligonucleotide 54 and was attached to laccase enzyme (lac/oligo 50) as described below in Example 13, This oligonucleotide also has a Cy3 tag at its 3′ end. All oligonucleotides were purchased from Integrated DNA Technologies, Inc. (Coralville, Iowa). Oligos 52 and 54 in (1), and oligos 52 and 50 in (2) were prehybridized in 50 mM Na Acetate pH 5.0 plus 100 mM Na2SO4 for 10 min at 50° C., then allowed to cool to room temperature before adding to the chip with oligo 51.
Hybridizations of the surface bound probe, oligo 51, with the samples listed above were carried out in 50 mM Na Acetate pH 5.0 plus 100 mM Na2SO4. Unbound oligonucleotides were removed by rinsing with Washing Buffer A (Arraylt, Telechem International Inc., Sunnyvale, Calif.). Where a laccase/DNA adduct was used for hybridization, 50 mM Na Acetate pH 5.0 plus 100 mM Na2SO4 was used for the wash. After washing, the chip was covered with a cover slip and observed using a fluorescence microscope. The extent of hybridization was evaluated by measuring fluorescence emission from fluorescent-tagged oligonucleotides attached or not to laccase.
Results of fluorescent signals following hybridizations in 1) and 2) above, using different concentrations of oligos as listed, are given in Table 1. […]

[6] = plots of reciprocal rate vs inhibitor concentration, FIG. 20, read-out: Kd (dissociation constant of the inhibitor, -Ki intersection)

In the case of `CCn1c(=NN=c2sc3cc(S(=O)(=O)O)ccc3n2CC)sc2cc(S(=O)(=O)O)ccc21` [ABTS^−2, 2,2′-azino-bis(3-ethylbenz-thiazoline-6-sulfonate) diammonium salt, reference compound], the Kd ([1]; substrate of laccase, read-out: dissociation constant, Kd of the laccase substrate) is reported as 120 to 240 µM.

In the case of `[F-].[Na+]` [NaF], the “inhibition of laccase activity” value [2] is reported as 95%.

For `Oc1c(O)c(Cl)c(Cl)c(Cl)c1Cl` [Tetrachloro-o-quinol], the “activity as an inhibitor of laccase” value [1] was “effective inhibitor”, the Kd [1, 6] was 7 to 9 µM and the “amplitude of the laccase 600 nm absorbance peak on binding” value [3] was “decrease”.

`Oc1c(Cl)c(Cl)c(O)c(Cl)c1Cl` [tetrachloro-p-quinol] was tested, and the “activity as an inhibitor of laccase” value [1] was “inactive”.

`Oc1c(O)c(F)c(F)c(F)c1F` [tetrafluoro-o-quinol] gave a Kd [1, 6] of 2.5 µM.

In the case of “oligo28/laccase adduct: oligo 28 (SEQ ID NO:1) attached via 5′ hydrazide to periodate-treated Trametes versicolor laccase (CGCTGTGATGGTGGCCCC; Laccase enzyme attached through a 5' hydrazide, further chemistry not given here)”, the “increase in current, complementary vs non-complementary surface oligonucleotide” value [4] is reported as 3.5 fold.

B1: Oligo52 + Oligo54: target oligonucleotide 52 (SEQ ID NO:4) prehybridized to oligonucleotide 54 (SEQ ID NO:5) with 5′ Alexa Fluor 546 tag (nucleic acid)
chain 1: GGGGCCACCATCACAGCGTTTTTTTTTTGGGGCCACCATCACAGCG
chain 2: CGCTGTGATGGTGGCCCC
modifications: Second strand carries a 5' Alexa Fluor 546 label, further chemistry not given here; the letters are possibly those of the target site
B1 was tested, and the Relative signal amplitude ([5]; 1 nM) was 39 and 50, the Relative signal amplitude ([5]; 10 nM) was 940 and 990 and the Relative signal amplitude ([5]; 100 nM) was 1140 and 1690.
